Patent US12383520B2, “Compound and composition for use in the treatment of premenstrual syndrome and/or premenstrual dysphoric disorder” (SYNAPHARM […], priority 2019, dated 2025)

Legend:
[1] = treatment of premenstrual syndrome and/or premenstrual dysphoric disorder (reduction of symptoms); format: in vivo; settings: compared with other compounds, particularly other magnesium salts (like magnesium oxide)
[2] = stability over time of dihydrate versus anhydrous form; format: physicochemical; settings: compared to non-dihydrate (anhydrous) magnesium N-acetyl-taurinate

Question: Which “effectiveness (reduction of symptoms) in the treatment of premenstrual syndrome and/or premenstrual dysphoric disorder” value [1] does the source give for magnesium N-acetyl-taurinate here?
Answer: The value was “more effective (reduction of symptoms) than the other compounds”.

Question: Which stability over time [2] does the source give for magnesium N-acetyl-taurinate dihydrate here?
Answer: Its stability over time is “increased as compared to non-dihydrate magnesium N-acetyl-taurinate”.
